Test results from paper PMC5458078, “Global mapping of CARM1 substrates defines enzyme specificity and substrate recognition” (Nature Communications, 2017).

System: MCF7 cells
Assay: Quantitative nanoLC-MS/MS (TMT) of ADMA-containing peptides, CARM1 KO vs parental
Assay type: cell-based, human
Design: Fold change KO/WT: scale not given here
Conditions: ADMA-containing peptide, CARM1 knockout (KO) vs wild type (WT) MCF7 cells; 6-plex TMT experiment #1; three biological replicates each; sheet "MCF7"

Row | Substance | Fold change KO/WT
1 | EYFIPGTrLPPPTHGPQEYPPPPAVR | -1.126
2 | RPPTPGPDTSVSGPrLTLALAPGPPPPPSR | -1.877
3 | VGVPTAVQNLAPrAAVAAAAPrAVAPYK | -3.907
4 | FDGQPGQPSLLPrFDGLHGQPGPrFER | -2.047
5 | QGSIGLYTQNQPLPAGGPrVDPYrPVrLPMQK | -2.292
6 | QMAVPSFTQQILCPKPVHVrPPMPPrYPAPYGER | -2.943
7 | FEGQHNQLGGNLrFEGPHGQPGVGIrFEGPLVQQGGGMrFEGPSVPGGGLR | -1.477
8 | DCGTLPNrFVITPR | -0.2619
9 | GPVGQALPrPQAPPrLQSLMGTVQQGAQSWQQR | -3.859
10 | AVCSTPLSSSLLGPPGTSALPrLSR | -3.255

Same assay, conditions: ADMA-containing peptide, MCF7, CARM1 knockout (KO1-3) vs wild type (WT1-3), TMT 6-plex experiment #1

Row | Substance | Fold change KO/WT
11 | APPSFPPPAASrGGLGGTR | 0.1973
12 | LGHDAYrLGQDPYR | -1.081
13 | GAPHFrFIIAGR | -0.1995
14 | LGQDPYrLGHDPYR | -1.973
15 | QAPrDGLTPVPPLAPAPrPPSSGLPAVLNPrPTLTPGrLPTPTLGTArAPMPTPTLVrPLLK | -4.977
16 | NHPrVYQNR | 0.9632
17 | FAPrGAPHFrFIIAGR | -0.1223
18 | RPEFMrGGGSGGGR | 0.64
19 | GASQAGMTGYGMPrQIL | -2.889
20 | VrATSVLPrYGPPCLFK | -2.652

Same assay, conditions: CARM1 KO vs wild type MCF7 cells, 3 biological replicates each

Row | Substance | Fold change KO/WT
21 | NPHTLGLSrYHPYGK | -0.4466
22 | YSAFQLAPFQDHGLPAVSVDSPVrYK | -2.156
23 | GPrFEGNrPDGPrPrYEGHPAEGTK | -5.083
24 | GSGTGIYSNAAPPPVTYQGNLYrPLLR | -2.788
25 | TPLLGDGPrAPFNQEGQSTGPPPLIPGLGQQGAQGR | -4.991
26 | GrGALLQDICK | 0.3016
27 | GPrFEGNRPDGPrPrYEGHPAEGTK | -2.637
28 | KYPLPPPSGrYNWN | -1.439

Same assay, conditions: MCF7, CARM1 KO (KO1-KO3) vs wild type (WT1-WT3)

Row | Substance | Fold change KO/WT
29 | YRPYDGAASAYAQNYrYPEPERPSSR | -0.7141
30 | KPLPLGVrAPLAGPSAAAR | -2.562
31 | DQPGTSAVPNLASVGTrLPPPLPQNLLYTVSErQPMYSR | -3.343
32 | LIAAAQSGLPVrIESIK | -0.4316
33 | NVNPVILLNTQTrPYGFGLNHGHTPYSSMLNQGLGVPGIGATQGLrTGFTNIPSrYGTNNR | -2.828

System: MCF7 CARM1 KO cells
Assay: Quantitative MS of ADMA-containing peptides in MCF7 CARM1 KO cells expressing CARM1 28-608 or CARM1 140-608, and in CARM1 KO
Assay type: cell-based, human
Conditions: not given

Row | Substance | CARM1 140-608/WT | KO/WT
34 | LGHDAYrLGQDPYR | -1.007 | -1.081
35 | LGQDPYrLGHDPYR | -1.933 | -1.973

Same assay, conditions: CARM1 140-608 versus WT, difference of mean log2 values

Row | Substance | CARM1 140-608/WT
36 | NPHTLGLSrYHPYGK | -0.4138
37 | YSAFQLAPFQDHGLPAVSVDSPVrYK | -1.433
38 | GPrFEGNrPDGPrPrYEGHPAEGTK | -4.084
39 | GSGTGIYSNAAPPPVTYQGNLYrPLLR | 1.554
40 | TPLLGDGPrAPFNQEGQSTGPPPLIPGLGQQGAQGR | -4.072
41 | GrGALLQDICK | 0.1138
42 | GPrFEGNRPDGPrPrYEGHPAEGTK | -1.638
43 | KYPLPPPSGrYNWN | -1.833

Same assay, conditions: CARM1 140-608 versus WT, mean of three replicates (log2)

Row | Substance | CARM1 140-608/WT
44 | DQPGTSAVPNLASVGTrLPPPLPQNLLYTVSErQPMYSR | -2.641
45 | VGVPTAVQNLAPrAAVAAAAPrAVAPYK | 0.2214
46 | FDGQPGQPSLLPrFDGLHGQPGPrFER | -1.6986
47 | QMAVPSFTQQILCPKPVHVrPPMPPrYPAPYGER | 0.05331
48 | FEGQHNQLGGNLrFEGPHGQPGVGIrFEGPLVQQGGGMrFEGPSVPGGGLR | 0.6048
49 | DCGTLPNrFVITPR | -0.5335

Same assay, conditions: CARM1 140-608 vs WT, mean of 3 replicates (log2 scale)

Row | Substance | CARM1 140-608/WT
50 | YRPYDGAASAYAQNYrYPEPERPSSR | -1.157
51 | KPLPLGVrAPLAGPSAAAR | -2.373
52 | LIAAAQSGLPVrIESIK | -0.3613
53 | NVNPVILLNTQTrPYGFGLNHGHTPYSSMLNQGLGVPGIGATQGLrTGFTNIPSrYGTNNR | -1.7448

Same assay, conditions: CARM1 KO versus WT, difference of mean log2 values

Row | Substance | KO/WT
54 | NPHTLGLSrYHPYGK | -0.4466
55 | YSAFQLAPFQDHGLPAVSVDSPVrYK | -2.156
56 | GPrFEGNrPDGPrPrYEGHPAEGTK | -5.484
57 | GSGTGIYSNAAPPPVTYQGNLYrPLLR | -1.424
58 | TPLLGDGPrAPFNQEGQSTGPPPLIPGLGQQGAQGR | -5.54
59 | GrGALLQDICK | -0.96
60 | GPrFEGNRPDGPrPrYEGHPAEGTK | -2.637
61 | KYPLPPPSGrYNWN | -2.65

Same assay, conditions: KO versus WT, mean of three replicates (log2)

Row | Substance | KO/WT
62 | DQPGTSAVPNLASVGTrLPPPLPQNLLYTVSErQPMYSR | -3.343
63 | VGVPTAVQNLAPrAAVAAAAPrAVAPYK | -3.003
64 | FDGQPGQPSLLPrFDGLHGQPGPrFER | -2.399
65 | QMAVPSFTQQILCPKPVHVrPPMPPrYPAPYGER | -2.9202
66 | FEGQHNQLGGNLrFEGPHGQPGVGIrFEGPLVQQGGGMrFEGPSVPGGGLR | -1.668
67 | DCGTLPNrFVITPR | -0.73

Same assay, conditions: KO vs WT, mean of 3 replicates (log2 scale)

Row | Substance | KO/WT
68 | YRPYDGAASAYAQNYrYPEPERPSSR | -0.7141
69 | KPLPLGVrAPLAGPSAAAR | -2.562
70 | LIAAAQSGLPVrIESIK | -0.4316
71 | NVNPVILLNTQTrPYGFGLNHGHTPYSSMLNQGLGVPGIGATQGLrTGFTNIPSrYGTNNR | -2.828

Same assay, conditions: difference of log2 means, CARM1 140-608 vs WT

Row | Substance | CARM1 140-608/WT
72 | EYFIPGTrLPPPTHGPQEYPPPPAVR | 0.04953
73 | RPPTPGPDTSVSGPrLTLALAPGPPPPPSR | -1.4
74 | QGSIGLYTQNQPLPAGGPrVDPYrPVrLPMQK | -2.266
75 | GPVGQALPrPQAPPrLQSLMGTVQQGAQSWQQR | -1.639
76 | AVCSTPLSSSLLGPPGTSALPrLSR | -2.222

Same assay, conditions: difference of log2 means, KO vs WT

Row | Substance | KO/WT
77 | EYFIPGTrLPPPTHGPQEYPPPPAVR | -1.295
78 | RPPTPGPDTSVSGPrLTLALAPGPPPPPSR | -1.877
79 | QGSIGLYTQNQPLPAGGPrVDPYrPVrLPMQK | -3.357
80 | GPVGQALPrPQAPPrLQSLMGTVQQGAQSWQQR | -3.859
81 | AVCSTPLSSSLLGPPGTSALPrLSR | -3.255

Same assay, conditions: log2 scale ratio, mean of n = 3

Row | Substance | CARM1 140-608/WT | KO/WT
82 | APPSFPPPAASrGGLGGTR | -0.3832 | 0.1973
83 | GAPHFrFIIAGR | -0.6361 | -0.5643
84 | QAPrDGLTPVPPLAPAPrPPSSGLPAVLNPrPTLTPGrLPTPTLGTArAPMPTPTLVrPLLK | -2.613 | -4.977
85 | NHPrVYQNR | -0.04969 | 0.9632
86 | FAPrGAPHFrFIIAGR | -0.6829 | -0.5952
87 | RPEFMrGGGSGGGR | 0.07419 | 0.64
88 | GASQAGMTGYGMPrQIL | -2.236 | -2.889
89 | VrATSVLPrYGPPCLFK | -1.769 | -2.652
